# Results from publication PMC6315438 (Metabolites, 2018).
# Molecular target: T1, aryl hydrocarbon receptor (AHR) (Homo sapiens, UniProt P35869)
# T1 construct: human AHR in liver cytosol of mice expressing human AHR; also HepG2 (40/6) cells
# T1 sequence (P35869 11-848): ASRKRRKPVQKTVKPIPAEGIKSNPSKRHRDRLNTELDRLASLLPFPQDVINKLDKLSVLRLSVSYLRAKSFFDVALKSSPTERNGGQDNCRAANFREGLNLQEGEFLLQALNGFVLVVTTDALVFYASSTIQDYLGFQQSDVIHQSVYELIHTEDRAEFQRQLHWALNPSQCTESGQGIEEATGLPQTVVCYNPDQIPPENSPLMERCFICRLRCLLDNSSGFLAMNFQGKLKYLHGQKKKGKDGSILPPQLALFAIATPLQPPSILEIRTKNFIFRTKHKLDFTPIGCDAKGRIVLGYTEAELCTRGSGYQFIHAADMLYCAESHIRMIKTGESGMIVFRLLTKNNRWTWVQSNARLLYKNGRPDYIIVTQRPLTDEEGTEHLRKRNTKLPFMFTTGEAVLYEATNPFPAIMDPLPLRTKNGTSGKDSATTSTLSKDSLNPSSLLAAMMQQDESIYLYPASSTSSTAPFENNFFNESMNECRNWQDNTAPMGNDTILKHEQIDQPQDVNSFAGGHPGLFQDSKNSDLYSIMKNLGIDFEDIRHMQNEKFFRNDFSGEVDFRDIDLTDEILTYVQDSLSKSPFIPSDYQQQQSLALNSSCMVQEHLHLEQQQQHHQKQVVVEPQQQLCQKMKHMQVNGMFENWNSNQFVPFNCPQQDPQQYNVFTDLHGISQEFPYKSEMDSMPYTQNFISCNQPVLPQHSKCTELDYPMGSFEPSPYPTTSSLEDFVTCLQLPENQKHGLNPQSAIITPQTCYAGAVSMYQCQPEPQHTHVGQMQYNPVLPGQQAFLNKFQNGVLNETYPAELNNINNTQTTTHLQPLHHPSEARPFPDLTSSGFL
# Test: competition with […] photoaffinity ligand (PAL) in human AHR-expressing hepatic cytosol
# Type: binding
smiles,measurement,value
"O=c1oc2cc(O)ccc2c2ccc(O)cc12 [UroA, Urolithin A]",IC50,800 nM
